Experimental findings from patent US9475855B2, “Human Notch3 based fusion proteins as decoy inhibitors of Notch3 signaling” (THE TRUSTEES OF COLUMBIA UNIVERSITY IN THE CITY OF NEW YORK, priority 2008, dated 2016) are described below.

Common to all, as to assay type: cell-based, human
One assay concerns VEGFR-3. The experiment in a line: quantitative RT-PCR of Prox1-induced Notch-target gene VEGFR-3 in HUVEC. The conditions noted are these: Ad-Prox1 infected HUVEC, 24 hours. The procedure: (§1) HUVEC were infected with adenoviruses encoding LacZ, Prox1, N1Ic or N4/int-3. Compound E(cE), Presenlin inhibitor that inhibits Notch signaling, was incubated for 24 hours on either Ad-LacZ or Ad-Prox1 infected HUVEC and total RNA isolated. Quantitative RT-PCR was performed for the endothelial Notch-target genes, VEGFR-3, EphrinB2, and Hey2. The Prox-1 mediated induction of the Notch target genes, ephrinB2, VEGFR-3 and Hey2 was inhibited by the addition of the Notch signaling inhibitor Compound E. Thus, Prox1 regulates the expression of ephrinB2, VEGFR-3 and Hey2 via Notch.
as §1, with “E, as shown in FIG. 48.” for “E.”

A further assay has as its system ephrinB2. Description: quantitative RT-PCR of Prox1-induced Notch-target gene ephrinB2 in HUVEC. The conditions noted are these: Ad-Prox1 infected HUVEC, 24 hours. The method, then: as §1
as §1, with “E, as shown in FIG. 48.” for “E.”

Another assay relates to Notch3. The experiment in a line: quantitative RT-PCR of Prox1-induced Notch3 expression in HUVEC. The conditions noted are these: Ad-Prox1 infected HUVEC, 24 hours. The procedure:
(A) It was examined if extopic expression of Prox1 would alter the expression of Notch proteins or ligands. Twenty-four hours post adenoviral infection with either Ad-Prox1 or Ad-LacZ, HUVEC total RNA was isolated and quantitative RT-PCR for Notch1-4, Dll4 and Jagged1 performed. […] (B) Compound E (cE), Presenlin inhibitor that inhibits Notch signaling, was incubated for 24 hours on either Ad-LacZ or Ad-Prox1 infected HUVEC. Total RNA was isolated and quantitative PCR performed to determine Notch3 expression.
It was examined if ectopic expression of Prox1 would alter the expression of Notch proteins or ligands. […] Total RNA was isolated and quantitative RT-PCR performed to determine Notch3 expression. Prox1 induced Notch3 expression and this induction was inhibited by the addition of compound E.

Another assay deals with Hey2. Description: quantitative RT-PCR of Prox1-induced Notch-target gene Hey2 in HUVEC. The conditions noted are these: Ad-Prox1 infected HUVEC, 24 hours. The procedure:
as §1
as §1, with “E, as shown in FIG. 48.” for “E.”

The subject of the next assay is Ad-N1IC-transduced HUVEC. The experiment in a line: Notch-induced HUVEC budding on collagen gel. The method, then: HUVEC were transduced with either Ad-LacZ or Ad-N1IC at 40 MOI. FIGS. 23A-23C show the effect of inhibitors for receptor tyrosine kinases on Notch-induced HUVEC budding. FIG. 23A is a photograph of budding of Ad-N1IC-transduced HUVEC treated with PD166866, ZD1893 at 1 μm and SU5416 at 0.5 μm. […] FIGS. 23D-E show induction of Flt-1 expression in Ad-N1IC-transduced HUVEC. […] FIGS. 23F-G show promotion of Notch-induced HUVEC budding with P1GF stimulation. Ad-N1IC-transduced HUVEC were cultured on collagen gel with SFM, instead of complete medium, in the absence or presence of 50 ng/ml P1GF. […] FIGS. 23H-I show the effect of Flt-1 siRNA transfection on Flt1 expression. Ad-N1IC-transduced HUVEC were transfected with 200 pmol of either control (CT) or Flt-1 siRNA. […] Ad-N1IC-transduced HUVEC were transfected with either 100 or 200 pmol of siRNA and cultured on collagen gel for 2 days.
These Figures show inhibition of budding of Ad-N1IC-transduced HUVEC with treatment of matrix metallo-proteinase inhibitor GM6001. Either Ad-LacZ or Ad-N1IC-HUVEC at a MOI of 40 pfu/cell were cultured on collagen gel for 5 days in the absence or presence of GM6001 at 50 μm.
To test whether Notch signaling is down-stream of VEGF, we evaluated three distinct inhibitors for receptor tyrosine kinases, including VEGFR on N1IC-induced HUVEC budding, because three growth factors existed in complete medium (FIG. 23A-C). […] Thus, we examined whether activation of Notch signaling affected Flt1/VEGFR1 expression in HUVEC, because SU5416 inhibits both Flt1 and Flk1 kinase activity (15). […] P1GF increased the number of Ad-N1IC-HUVEC buds by 150%, compared to the absence of P1GF (FIG. 23F). Moreover, P1GF increased HUVEC buds containing multiple filopodia by 250% (FIG. 23G). […] Transfection with Flt1 siRNA inhibited budding of both Ad-N1IC- and Ad-VEGF-HUVEC to a similar extent (data not shown).

For the next assay, the system named is CBF1 promoter activity. Description: VEGF-induced Notch signaling, CBF1 promoter (CSL-luciferase) reporter activity in HUVEC. The conditions noted are these: Ad-VEGF-transduced HUVEC. The procedure: To determine VEGF-induced Notch signaling, HUVEC which were infected with adenovirus were used. HUVEC plated 1-day prior in 6 well plates at 8.0×10^5 were infected with either Ad-LacZ as control or Ad-VEGF at indicated m.o.i. in the presence or absence of Ad-N1ECD/Fc. Two days after infection, infected HUVEC were re-seeded into 24-well plate at 1.5×10^5 cell in triplicate and cultured for 24 hours, and then transfected with 12.5 ng pRL-SV40 (Promega) and 137.5 ng pGA981-6 using Effectene transfection reagent (Qiagen). Cells were harvested either 1 or 2 days post-transfection and luciferase activity was determined by using the Dual-Luciferase® Reporter Assay System (Promega).
One can measure Notch signaling function by measuring transcriptional activity of CBF1 promoter, which is activated by binding of Notch-IC to CBF1. We measured CBF1 promoter activity in HUVEC which was infected with adenovirus encoding VEGF-165 at different MOI (FIG. 6). Induction of CBF1 promoter was clearly detected in Ad-VEGF-infected HUVEC, compared to Ad-LacZ-infected cells in the MOI dependent manner. […] Thus VEGF induced Notch signaling activity.

A further assay has as its system HUVEC. Description: HUVEC proliferation (CCK-8 kit). The conditions noted are these: SFM with 1% FBS, 4 days (FIG. 26B). The method, then:
These Figures show proliferation of Ad-VEGF165-transduced HUVEC. HUVEC were transduced with Ad-VEGF165 at the indicated dosages. Ad-LacZ was also co-infected to make the same total amount of adenovirus at a MOI of 40 pfu/cell. HUVEC were suspended in SFM supplemented with 1% FBS and then plated at 1×10^4 cells/well in 24-well multi-wll plates with 0.4 ml of medium. After 4 days, cell numbers were determined using the CCK-8 kit and the results are indicated as the ratio of cell numbers determined to the number of control cells, which were transduced with Ad-GFP at a MOI of 40 pfu/cell. […] Ad-VEGF-transduced HUVEC were treated with SU5416 at the indicated dosages.
These Figures show the effect of alteration of Notch signaling on cell proliferation. The cells were transduced with the indicated adenoviruses. Ad-GFP was also co-infected to make the same total amount of adenovirus at a MOI of 60 pfu/cell. After 4 days, cell numbers were determined using the CCK-8 kit and results are indicated as the ratio of cell numbers determined to the number of control cells, which were transduced with AD-GFP at MOI of 60 pfu/cell. […] Transduced HUVEC were suspended in complete medium and then plated at 1×10^4 cells/well in 24-well multiwell plates with 0.4 ml of indicated medium (□: Ad-N1IC; ▪: Ad-N1ECDFc). […]
Background: Tetrazolium assays rely on reduction of a dye to a coloured formazan, in cell work by metabolically active cells.

The mark [1] stands for this setting: receptor tyrosine kinase inhibitors, 1 μM, complete medium.

Regarding `C[C@H](NC(=O)Cc1cc(F)cc(F)c1)C(=O)N[C@H]1N=C(c2ccccc2)c2ccccc2N(C)C1=O` [Compound E], in the assay on VEGFR-3, the “Prox-1 mediated induction of VEGFR-3” value is listed as “inhibited”. Also, the “Prox-1 mediated induction of ephrinB2” value with ephrinB2 is reported as “inhibited”. For the same molecule, the “Prox1 induction of Notch3 expression” value with Notch3 is listed as “inhibited”. Also, the “Prox-1 mediated induction of Hey2” value in the assay with Hey2 is reported as “inhibited”.
On to `CNC(=O)[C@H](Cc1c[nH]c2ccccc12)NC(=O)[C@@H](CC(=O)NO)CC(C)C` [GM6001], for which the “budding of Ad-N1IC-HUVEC” value with Ad-N1IC-transduced HUVEC (GM6001 at 50 μm, collagen gel, 5 days) was “clearly decreased”; with Ad-N1IC-transduced HUVEC (fibrin gel (data not shown)), “clearly decreased”.
For `COc1cc(OC)cc(-c2cc3cnc(N)nc3nc2NC(=O)NC(C)(C)C)c1` [P13166866], the “budding of Ad-N1IC-HUVEC” value with Ad-N1IC-transduced HUVEC (setting [1]) was “Neither P13166866 or ZD1893 affected budding”.
For the molecule `Cc1cc(C)c(/C=C2\C(=O)Nc3ccccc32)[nH]1` [SU5416, reference compound], the “budding of Ad-N1IC-HUVEC versus viability” value with Ad-N1IC-transduced HUVEC (lower concentrations, dose-dependency (FIG. 23C)) is “selectively inhibited”. Further, in the assay with Ad-N1IC-transduced HUVEC (setting [1]), the “budding of Ad-N1IC-HUVEC” value is “clearly inhibited”. Besides, in the assay with CBF1 promoter activity, the “VEGF-induced CBF1 promoter / CSL-luciferase reporter activity” value is “decreased”. In the assay with HUVEC, the “proliferation of Ad-VEGF-transduced HUVEC” value is recorded as “inhibitory effect”.

B1: P1GF: placental growth factor, a selective ligand for Flt1 (protein, UniProt P49763 19-221, looked up)
Placenta growth factor: LPAVPPQQWALSAGNGSSEVEVVPFQEVWGRSYCRALERLVDVVSEYPSEVEHMFSPSCVSLLRCTGCCGDENLHCVPVETANVTMQLLKIRSGDRPSYVELTFSQHVRCECRHSPGRQSPDMPGDFRADAPSFLPPRRSLPMLFRMEWGCALTGSQSAVWPSSPVPEEIPRMHPGRNGKKQQRKPLREKMKPERCGDAVPRR
Regarding B1, in the assay on Ad-N1IC-transduced HUVEC (50 ng/ml P1GF, SFM), the “increase of HUVEC buds containing multiple filopodia” value came out at 250%. For the same molecule, the “increase of the number of Ad-N1IC-HUVEC buds” value with Ad-N1IC-transduced HUVEC (50 ng/ml P1GF, SFM, compared to the absence of P1GF) is 150%.
